US20200299783A1 (Board of Regents, The University of Texas System, priority 2019, published 2020)
“Also recorded” adds a separate entry of the source.

What was measured:
[1] = tested on: ibrutinib-resistant MCL cell lines Maver-1 and Z-138; assay: ROS levels by flow cytometry, ibrutinib-resistant MCL cell lines; assay type: cell-based, human
Protocol: Mitochondria membrane potential, mitochondria mass, ROS, and apoptosis analysis. MCL cells were seeded and cultured overnight before treatment to reach log phase. Respective cell lines were plated at 2×10^6 cells/well in 6-well plates in phenol-red and pyruvate-free DMEM assay medium containing 5 mM glucose (Sigma), 2 mM GlutaMAX (Gibco, ThermoFisher Scientific), and 5% dialyzed FCS (Gibco). Vehicle, IACS-0107059 (20 nM), or (1-5 μM) BPTES was added and replenished every day until the indicated time points. ROS and mitochondria membrane potential were evaluated 24 hours after treatment. […] TMRE dye fluorescence retained in the cells was detected by flow cytometry with excitation and emission of 548/574 nm. Data were analyzed with NovoExpress (ACEA Biosciences, San Diego, Calif., USA) or FlowJo10 (Tree Star, Ashland, Oreg., USA). To measure ROS levels, treated cells were harvested, stained with […] CM-H2DCF-DA (C6827, Molecular Probes, Invitrogen) in PBS for 30 min at 37° C., washed twice with PBS, and analyzed in a flow cytometer (FACS Caliber, BD Biosciences) by recording the green fluorescence of oxidized DCF. The mean fluorescence of 10,000 analyzed cells (corrected for auto fluorescence) was taken as a readout for the intracellular ROS load.

[2] = tested on: ibrutinib-resistant Z-138 MCL cells; assay: Apoptosis assay (Annexin-V/PI), Z-138; assay type: cell-based, human; conditions: 72 hours, 20 nM IACS-010759 and/or 5 μM BPTES, FIGS. 5F & 11E
Protocol: (§1) Apoptosis assays. Annexin V-binding assay was used to detect the induction of apoptosis. Cells were seeded in 48-well plates with single agent or combination therapy for various times, or with different concentrations for 48 hours. To quantify the percentages of cells undergoing apoptosis, Annexin V-FITC was used. Briefly, cells were washed twice with cold PBS and then suspended in binding buffer at a concentration of 1×10^6 cells/mL. After incubation, 100 μL of the solution was transferred to a 5-mL tube, to which 5 μL of Annexin V-FITC and 5 μL of PI are added. The tube was gently vortexed and incubated for 15 min at room temperature in dark. At the end of the incubation, 300 μL of binding buffer was added. Flow cytometric analysis was performed immediately with a Novocyte Flow Cytometer (ACEA Biosciences, San Diego, Calif., USA). Data were analyzed with NovoExpress (ACEA Biosciences, San Diego, Calif., USA) or FlowJo10 (Tree Star, Ashland, Oreg., USA).

[3] = tested on: Z-138 and Maver-1 MCL cell lines; assay: Immunoblotting of cleaved Caspase-7 and PARP; assay type: cell-based, human; conditions: 20 nM IACS-010759 and/or 5 μM BPTES for 72 hours; FIG. 5G
Protocol: Cells were cultured with single agent or combination therapy in the presence or absence of caspase inhibitors. Cells were harvested, washed twice with cold PBS, and lysed with lysis buffer (Cell Signaling, Danvers, Mass., USA). Cell lysates were kept on ice for 30 min and centrifuged at 13,000 g for 10 min at 4° C. For the detection of cytosolic cytochrome c, the Cytosol Fractionation Kit (BioVision, Milpitas, Calif., USA) was utilized to acquire cytosolic fractions according to the manufacturer's instructions. Supernatants were collected, and the protein content of each fraction was determined using a Bio-Rad Bradford assay (Bio-Rad, Hercules, Calif., USA). Samples were boiled in loading buffer and separated by 10% SDS-PAGE. After electrophoresis, the proteins were transferred onto a nitrocellulose membrane (Bio-Rad), which was incubated with blocking solution (5% nonfat dry milk in PBS containing 0.05% Tween-20) for 2 h and immunoblotted with SLC16A1 (Novus, St. Louis, Mo., USA), SLC1A5, BTK, and p16INK4a, and GAPDH (Cell Signaling, Danvers, Mass., USA) antibodies. The membrane was finally visualized by incubating the membrane with a chemiluminescence Western blot kit (Pierce Biotechnology, Rockford, Ill., USA).

[4] = tested on: ibrutinib-resistant Maver-1 MCL cells; assay: Apoptosis assay (Annexin-V/PI), Maver-1; assay type: cell-based, human; conditions: 72 hours, 20 nM IACS-010759 and/or 5 μM BPTES, FIGS. 5F & 11E
Protocol: as §1

[5] = tested on: ibrutinib-resistant MCL cell lines (Maver-1 and Z-138) versus ibrutinib-sensitive (JeKo-1 and Mino); assay: Glutamine uptake in MCL cell lines; assay type: cell-based, human; conditions: 20 nM for 24 hours; resistant compared with sensitive cells; FIG. 11D
Protocol: (§2) MCL cell lines were seeded at 1-2×10^6 cells/well in triplicate in six-well plates and incubated overnight. Next, the media were replaced with 3 mL complete RPMI-1640 medium with or without inhibitors. […] and analyzed for their glucose, glutamine and lactate content using the Glucose, Glutamine and Lactate Colorimetric Assay Kits (BioVision), respectively, according to the manufacturer's instructions. Glucose or glutamine consumption was extrapolated by subtracting the measured glucose concentrations in the media from the initial concentrations (11.1 mM glucose; 2 mM glutamine). Intracellular ATP contents from above treated cells was determined using ATP Colorimetric Assay Kit (Biovision) as outlined in the manufacturer's protocol. […]

ETC complex I = ETC complex I activity in ibrutinib-resistant MCL cell lines; assay type: cell-based, human; conditions: Z-138 and Maver-1; 20 nM, 24 hours; FIGS. 11A & 11B
[6] = tested on: ibrutinib-resistant Z-138 and Maver-1 cell lines; assay: Mitochondria membrane potential (TMRE), ibrutinib-resistant MCL cell lines; assay type: cell-based, human; conditions: 20 nM IACS-010759 and/or 5 μM BPTES for 24 hours; FIGS. 5C & 5D
Protocol: (§3) Mitochondria membrane potential, mitochondria mass, ROS, and apoptosis analysis. MCL cells were seeded and cultured overnight before treatment to reach log phase. Respective cell lines were plated at 2×10^6 cells/well in 6-well plates in phenol-red and pyruvate-free DMEM assay medium containing 5 mM glucose (Sigma), 2 mM GlutaMAX (Gibco, ThermoFisher Scientific), and 5% dialyzed FCS (Gibco). Vehicle, IACS-0107059 (20 nM), or (1-5 μM) BPTES was added and replenished every day until the indicated time points. ROS and mitochondria membrane potential were evaluated 24 hours after treatment. To determine mitochondria membrane potential (Δψm), treated cells were loaded with MitoStatus tetramethylrhodamine, ethyl ester (TMRE) (BD Biosciences) at 37° C. for 15 min and washed with PBS twice to remove residual TMRE. TMRE dye fluorescence retained in the cells was detected by flow cytometry with excitation and emission of 548/574 nm. Data were analyzed with NovoExpress (ACEA Biosciences, San Diego, Calif., USA) or FlowJo10 (Tree Star, Ashland, Oreg., USA).

[7] = tested on: ibrutinib-sensitive MCL cell line, Mino; assay: Mitochondria respiration (OCR, Seahorse), ibrutinib-sensitive Mino; assay type: cell-based, human; conditions: 20 nM for 1 h, vs control, p=0.0832, FIG. 5B
Protocol: (§4) The oxygen consumption rate (OCR) was measured using a Seahorse XF-96 Metabolic Flux Analyzer (Seahorse Bioscience, North Billerica, Mass., USA). Briefly, MCL cells were treated with/without IACS-010759 (20 nM) for 1 h. On the day of analysis, 2-4×10^5 MCL cells/well were adhered to XF 96-well cell culture microplates (Seahorse Biosciences) pre-coated with Cell-Talc (BD Biosciences), by centrifugation at 1,000×g, without brakes for 5 min, then changed to mitochondria stress medium supplemented with 25 mM glucose, 2 mM sodium pyruvate, and 2 mM glutamine (pH 7.4), followed by incubation at 37° C. in a non-CO2 incubator for 1 h. […], FCCP (2 μM), and Rotenone/Antimycin A (0.5 μM), were loaded into drug delivery ports and injected sequentially at the indicated time points. After each injection, 4 time points were recorded with approximately 35 min between each injection. […] over time was normalized to protein content measured by sulforhodamine B (SRB) staining and plotted using Graph-Pad Prism.

[8] = tested on: ibrutinib-resistant high-grade B-cell lymphoma PDX
[9] = tested on: ibrutinib-resistant MCL PDX
Protocol: Histopathological analysis. Excised tissues from patients and PDX mice were fixed in 10% formalin solution, processed by standard methods, embedded in paraffin, sectioned at 5 μm, and stained with H&E. For immunohistochemical (IHC) evaluation, the tissues are stained with an antibody against human anti-CD20 (Dako, Glostrup, Denmark), counterstained with Harris hematoxylin and examined by standard light microscopy. Samples were analyzed using an Olympus BX51TF microscope equipped with UPlan FL 40×/0.75 and 20×/0.50 objective lenses (Olympus, Melville, N.Y., USA).

[10] = tested on: ibrutinib-sensitive MCL cell lines; assay: ROS levels by flow cytometry, ibrutinib-sensitive MCL cell lines; assay type: cell-based, human; conditions: FIG. 5E
Protocol: as §3, with “To determine mitochondria membrane potential (Δψm), treated cells were loaded with MitoStatus tetramethylrhodamine, ethyl ester (TMRE) (BD Biosciences) at 37° C. for 15 min and washed with PBS twice to remove residual TMRE.” left out
To measure ROS levels, treated cells were harvested, stained with […] CM-H2DCF-DA (C6827, Molecular Probes, Invitrogen) in PBS for 30 min at 37° C., washed twice with PBS, and analyzed in a flow cytometer (FACS Caliber, BD Biosciences) by recording the green fluorescence of oxidized DCF. The mean fluorescence of 10,000 analyzed cells (corrected for auto fluorescence) was taken as a readout for the intracellular ROS load.

[11] = tested on: ibrutinib-resistant (Maver-1 and Z-138) MCL cell lines; assay: Intracellular ATP, ibrutinib-resistant MCL cell lines; assay type: cell-based, human; conditions: 20 nM for 24 hours; 0 nM vs 20 nM p<0.0001; FIG. 11C
Protocol: as §2

[12] = tested on: ibrutinib-sensitive MCL cell lines (Mino and JeKo-1); assay: Cell growth assay, ibrutinib-sensitive MCL cell lines; assay type: cell-based, human; conditions: 72-hour incubation, FIG. 5A
Protocol: (§5) Cells were seeded in triplicate in a 96-well plate with 2×10^5 cells per well and treated with indicated dose of single agent or two compound combination for 24-72 hours. In the last 30 min, 50 μL of CellTiter 96 Aqueous One Solution Reagent were added to the culture wells and incubated at 37° C. in 5% CO2. Light absorbance of formazan was measured at 495 nm on a universal microplate reader equipped with KC4 software (Biotek Instruments, Winooski, Vt., USA).

[13] = tested on: ibrutinib-resistant MCL cell lines, Z-138 and Maver-1; assay: Mitochondria respiration (OCR, Seahorse), ibrutinib-resistant MCL cell lines; assay type: cell-based, human; conditions: 20 nM for 1 h, FIG. 5B
Protocol: as §4

[14] = tested on: ibrutinib-resistant MCL cell lines (Z-138 and Maver-1); assay: Cell growth assay, ibrutinib-resistant MCL cell lines; assay type: cell-based, human
Protocol: as §5

NOCC(=O)O [AOA, aminooxyacetate]
ROS and energy stress ([1]; 0.5 mM AOA for 24 hours, compared with the sensitive cell lines, FIG. 10B): marked induction of reactive oxygen species (ROS) and energy stress

O=C(Cc1ccccc1)Nc1nnc(CCSCCc2nnc(NC(=O)Cc3ccccc3)s2)s1 [BPTES, bis-2-(5-phenylacetamido-1,3,4-thiadiazol-2-yl)ethyl sulfide]
apoptosis [2]: 44%
caspase 7 activation and PARP cleavage [3]: induced caspase 7 activation and PARP cleavage
apoptosis [4]: 25%

Cc1nc(-c2nc(-c3ccc(OC(F)(F)F)cc3)no2)nn1Cc1cccc(N2CCC(S(C)(=O)=O)CC2)c1 [IACS-010759]
glutamine uptake inhibition [5]: greater glutamine uptake inhibition
ETC complex I activity (ETC complex I): reduced
mitochondrial potential (Δψm, TMRE) [6]: decreased
apoptosis [2]: 42%
OCR (oxygen consumption rate) [7]: little effect; also recorded: No significant difference
body weight vs vehicle ([8]; 10 mg/kg oral gavage 5 consecutive days/week, p=0.1964, FIG. 12C): not significantly different
tumor growth by tumor volume ([8]; IACS-010759 10 mg/kg 5 days/week (p<0.0001 vs vehicle), ibrutinib 50 mg/kg daily (p=0.7227), oral gavage, FIG. 12A): significantly inhibited tumor growth
tumor growth by human (32M levels) ([8]; IACS-010759 10 mg/kg 5 days/week (p=0.0003 vs vehicle), ibrutinib 50 mg/kg daily (p=0.6911), FIG. 12B): significantly inhibited tumor growth
survival benefit ([8]; compared with vehicle- and ibrutinib-treated mice, FIG. 12D): greater than 20 days
survival of the ibrutinib-resistant PDX mice ([8]; n=5, vs vehicle p=0.0035, vs ibrutinib p=0.0035, FIG. 12D): significantly prolonged the survival
toxicities ([9]; 10 mg/kg oral gavage 5 consecutive days/week): No apparent toxicities
body weight vs vehicle control ([9]; 10 mg/kg oral gavage 5 consecutive days/week, p=0.3304, FIG. 6C): not significantly different
tumor growth by tumor volume ([9]; 10 mg/kg oral gavage 5 consecutive days/week, vs vehicle, n=5, p<0.0001, FIG. 6A): completely prevented tumor growth
tumor growth by human β2M levels ([9]; 10 mg/kg oral gavage 5 consecutive days/week, vs vehicle, n=5, p<0.0001, FIG. 6B): completely prevented tumor growth
H&E and anti-CD20 staining of dissected tissue post-treatment ([9]; end of treatment, a small number of CD20+ cells remained, FIG. 6D): repopulation of the tumor area with fatty deposits
ROS production [10]: not in the -sensitive cell lines
caspase 7 activation and PARP cleavage [3]: induced caspase 7 activation and PARP cleavage
ATP production (intracellular ATP levels) [11]: decreased
inhibition of proliferation (cell growth inhibition) [12]: very little effect
ROS production ([1]; Maver-1 and Z-138, IACS-010759 25 nM (text; FIG. 5E legend 20 nM) and/or 5 μM BPTES, 24 hours): induced ROS production
OCR (oxygen consumption rate) ([13]; vs DMSO-treated control): reduced the OCR
average reduction of OCR compared with the control ([13]; mixed effects regression model, p<0.0001): 358.9406 (95% CI: 321.1402-396.741)
apoptosis [4]: 23%
inhibition of proliferation (cell growth inhibition) ([14]; Z-138 and Maver-1, 72-hour incubation, FIG. 5A): dose-dependent manner at nanomolar concentrations
difference in IC50 values between the resistant and sensitive cell lines ([14]; cell growth, 72 h, resistant (Z-138, Maver-1) vs sensitive (Mino, JeKo-1)): approximately 10 fold
